{"source": "patent US9233164B2", "about": "“Water soluble fullerene formulations and methods of use thereof” (BOARD OF REGENTS OF THE UNIVERSITY OF NEBRASKA, priority 2011, dated 2016)", "test_system": "superoxide", "assay": "Cell-free superoxide scavenging by EPR spectroscopy (HX+XO or FMN source, CMH spin probe)", "assay_type": "biochemical", "details": "400 U/ml SOD1", "protocol": "The ability of C60-polymer complexes to scavenge superoxide was measured by EPR spectroscopy, as reported (Rosenbaugh et al. (2010) Biomaterials 31:5218-26). Briefly, superoxide generated by HX—XO or a photosensitizer, FMN, was detected using the CMH spin probe. Samples contained 0.025 mM DF and 0.005 mM DETC buffer (pH 7.4), 0.025 mM CMH, 0.025 mM HX and 10 mU XO (or 0.02 mM FMN instead of HX—XO) and C60-polymer complexes at different concentrations. After complete mixing, each sample was incubated at r.t. for 5 minutes and 50 μl of the sample was loaded into a glass capillary, which was then inserted into the capillary holder of the EPR spectrometer. The CMH radical signal was recorded and EPR spectrum amplitude was quantified."}
{"substance": "superoxide dismutase [SOD1]", "values": [{"measurement": "Effect on EPR spectrum", "value": "completely abolished the EPR spectrum"}]}
